The EC50 is the concentration needed to bring the measured effect to its halfway point.

This passage reports EC50 results from patent US10316020B2, “Indane derivatives and the use thereof as soluble guanylate cyclase activators” (NOVARTIS AG, priority 2015, dated 2019).

This test concerns the target T1, soluble guanylate cyclase (GUCYA3/GUCYB3) overexpressed in CHO cells (Homo sapiens, UniProt Q02108+Q02153).
T1 construct: expressed in transfected cells
T1 sequence (Q02108 1-690 partner): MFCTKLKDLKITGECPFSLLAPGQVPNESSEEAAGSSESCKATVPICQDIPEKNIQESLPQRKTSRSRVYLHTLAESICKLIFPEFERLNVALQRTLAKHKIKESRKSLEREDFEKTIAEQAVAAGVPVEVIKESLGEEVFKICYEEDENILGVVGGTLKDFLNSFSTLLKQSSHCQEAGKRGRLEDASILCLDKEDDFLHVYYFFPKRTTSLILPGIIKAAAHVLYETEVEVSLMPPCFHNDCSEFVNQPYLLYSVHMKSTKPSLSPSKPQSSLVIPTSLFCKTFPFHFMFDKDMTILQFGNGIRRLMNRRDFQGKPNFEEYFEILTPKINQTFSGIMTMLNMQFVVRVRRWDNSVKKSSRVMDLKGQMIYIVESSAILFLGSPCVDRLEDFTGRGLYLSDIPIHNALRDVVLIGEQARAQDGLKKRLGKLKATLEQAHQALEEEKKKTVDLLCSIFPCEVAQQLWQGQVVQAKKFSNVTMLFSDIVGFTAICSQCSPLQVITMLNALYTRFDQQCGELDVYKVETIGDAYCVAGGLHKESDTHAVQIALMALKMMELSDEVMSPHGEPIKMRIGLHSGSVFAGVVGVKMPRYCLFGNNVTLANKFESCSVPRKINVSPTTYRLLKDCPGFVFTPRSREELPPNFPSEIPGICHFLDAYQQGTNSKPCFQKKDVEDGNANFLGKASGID
T1 sequence (Q02153 1-619): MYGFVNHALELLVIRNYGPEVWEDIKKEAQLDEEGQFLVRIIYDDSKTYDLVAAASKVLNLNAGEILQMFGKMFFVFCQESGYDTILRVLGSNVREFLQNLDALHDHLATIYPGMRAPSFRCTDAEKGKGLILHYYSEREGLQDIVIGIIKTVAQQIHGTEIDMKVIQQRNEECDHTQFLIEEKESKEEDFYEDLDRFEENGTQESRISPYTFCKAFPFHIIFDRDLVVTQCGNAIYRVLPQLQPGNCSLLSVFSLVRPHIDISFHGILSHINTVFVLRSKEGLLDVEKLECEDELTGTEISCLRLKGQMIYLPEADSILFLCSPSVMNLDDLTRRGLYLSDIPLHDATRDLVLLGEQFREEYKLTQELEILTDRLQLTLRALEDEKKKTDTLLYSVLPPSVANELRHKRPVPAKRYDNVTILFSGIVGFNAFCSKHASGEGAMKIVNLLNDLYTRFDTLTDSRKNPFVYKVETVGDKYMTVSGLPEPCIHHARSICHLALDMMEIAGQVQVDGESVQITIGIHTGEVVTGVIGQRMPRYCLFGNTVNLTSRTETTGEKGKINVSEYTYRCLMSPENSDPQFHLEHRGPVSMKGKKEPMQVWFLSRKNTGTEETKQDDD
In words: CHO cellular assay (cGMP production, HTRF). Type of test: cell-based. The settings on record: CHO GUCY clone 8E10; assay buffer with 1 mM IBMX, 20 uM ODQ; 1 h at room temperature; cGMP HTRF; quantification limit 0.0005 μM; read-out: Mean EC50. The source says:
Chinese hamster ovary (CHO) cells overexpressing soluble guanylate cyclase were generated to test the effect of sGC activators in a cellular context. Human cDNAs for GUCYA3 (RefSeq: NM_000856.3) and GUCYB3 (RefSeq: NM_000857.1) were amplified by PCR from a HUVEC (Human Umbilical Vein Endothelial Cells) cDNA library and cloned into mammalian expression vectors. CHO K1 cells (ATCC CCL-61) were transfected using Lipofectamine 2000 following manufacturer's instructions and stably expressing clones were identified by antibiotic selection. CHO GUCY clone 8E10 was used for subsequent experiments.
Cells were seeded at a density of 3000 cells/well in white 384-well proxyplates (Perkin Elmer) and incubated overnight, then the medium was removed and cells were washed with assay buffer (HBSS, 0.1% BSA, 1 mM IBMX, 20 uM ODQ). sGC activators were serially diluted in DMSO, then diluted in assay buffer prior to adding to cells (10 ul/well, final DMSO concentration 0.5%). Cells were incubated with compounds for 1 h at room temperature, then assayed for cGMP production using Cisbio cGMP HTRF kit (62GM2PEC) according to manufacturer's instructions.
The EC50s are calculated based on the amount of cGMP interpolated from the standard curve, using a 4-parameter sigmoidal dose-response.
Compounds of invention are active on sGC activation. Data in Table 1 collected using the assay of Biological Example 1.
On the technique in general: In TR-FRET formats the signal depends on donor and acceptor labels being close together.

As to `CCc1cc(NC2CCc3cccc(-c4cccc(-n5ncc(C(=O)O)c5N)c4)c32)ccc1C1CCN(C(=O)C2CC2)CC1` (single isomer, unassigned; (+)) [Example 9A, (+)-5-Amino-1-(3-(3-((4-(1-(cyclopropanecarbonyl)piperidin-4-yl)-3-ethylphenyl)amino)-2,3-dihydro-1H-inden-4-yl)phenyl)-1H-pyrazole-4-carboxylic acid], the EC50 is 4 nM.

Regarding `CCc1cc(C[C@H]2CCc3cccc(-c4cccc(-n5ncc(C(=O)O)c5OC)c4)c32)ccc1C1CCN(C(=O)[C@H](C)O)CC1` [Example 2A, (+)-1-(3-((R)-3-(3-Ethyl-4-(1-((S)-2-hydroxypropanoyl)piperidin-4-yl)benzyl)-2,3-dihydro-1H-inden-4-yl)phenyl)-5-methoxy-1H-pyrazole-4-carboxylic acid], the EC50 is < 0.5 nM. Then `CCc1cc(NC2CCc3cccc(-c4ccc(OC)c(-n5ncc(C(=O)O)c5OC)c4)c32)ccc1C1CCN(C(=O)C2CC2)CC1` (single isomer, unassigned; (-)) [Example 8B, (−)-1-(5-(3-((4-(1-(Cyclopropanecarbonyl)piperidin-4-yl)-3-ethylphenyl)amino)-2,3-dihydro-1H-inden-4-yl)-2-methoxyphenyl)-5-methoxy-1H-pyrazole-4-carboxylic acid], with 86 nM. Take `CCc1cc(NC2CCc3cccc(-c4cccc(-n5ncc(C(=O)O)c5OC)c4)c32)ccc1C1CCN(C(=O)[C@H](C)O)CC1` (single isomer, unassigned; (-)) [Example 4B]: the EC50 came to 110 nM. As to `CCc1cc(O[C@H]2CCc3cccc(-c4cccc(-n5ncc(C(=O)O)c5OC)n4)c32)ccc1C1CCN(C(=O)[C@H](C)O)CC1` [Example 15, 1-(6-((S)-3-(3-Ethyl-4-(1-((S)-2-hydroxypropanoyl)piperidin-4-yl)phenoxy)-2,3-dihydro-1H-inden-4-yl)pyridin-2-yl)-5-methoxy-1H-pyrazole-4-carboxylic acid], the EC50 was 1 nM.

With `CCc1cc(N[C@@H]2CCc3cccc(-c4cccc(-n5ncc(C(=O)O)c5OC)c4)c32)ccc1C1CCN(C(=O)C2CC2)CC1` [Example 3B, (−)-(R)-1-(3-(3-((4-(1-(Cyclopropanecarbonyl)piperidin-4-yl)-3-ethylphenyl)amino)-2,3-dihydro-1H-inden-4-yl)phenyl)-5-methoxy-1H-pyrazole-4-carboxylic acid], the EC50 is 29 nM.

As for `CCc1cc(C[C@@H]2CCc3cccc(-c4cccc(-n5ncc(C(=O)O)c5OC)c4)c32)ccc1C1CCN(C(=O)[C@H](C)O)CC1` [Example 2B, (−)-1-(3-((S)-3-(3-Ethyl-4-(1-((S)-2-hydroxypropanoyl)piperidin-4-yl)benzyl)-2,3-dihydro-1H-inden-4-yl)phenyl)-5-methoxy-1H-pyrazole-4-carboxylic acid], the EC50 turned out to be 34 nM.

With `CCc1nc(NC2CCc3cccc(-c4cccc(-n5ncc(C(=O)O)c5OC)c4)c32)ccc1C1=CCN(C(=O)[C@H](C)O)CC1` (single isomer, unassigned) [Example 11B, 1-(3-((R or S)-3-((2-ethyl-1′-((S)-2-hydroxypropanoyl)-1′,2′,3′,6′-tetrahydro-[3,4′-bipyridin]-6-yl)amino)-2,3-dihydro-1H-inden-4-yl)phenyl)-5-methoxy-1H-pyrazole-4-carboxylic acid], the EC50 amounted to 1.4 nM. Then `CCc1cc(C[C@H]2CCc3cccc(-c4cccc(-n5ncc(C(=O)O)c5N)n4)c32)ccc1C1CCN(C(=O)C2CC2)CC1` [Example 23, (R)-5-Amino-1-(6-(3-(4-(1-(cyclopropanecarbonyl)piperidin-4-yl)-3-ethylbenzyl)-2,3-dihydro-1H-inden-4-yl)pyridin-2-yl)-1H-pyrazole-4-carboxylic acid], with < 0.5 nM; and `CCc1cc(NC2CCc3cccc(-c4cccc(-n5ncc(C(=O)O)c5N)c4)c32)ccc1C1CCN(C(=O)C2CC2)CC1` (single isomer, unassigned; (-)) [Example 9B, (−)-5-Amino-1-(3-(3-((4-(1-(cyclopropanecarbonyl)piperidin-4-yl)-3-ethylphenyl)amino)-2,3-dihydro-1H-inden-4-yl)phenyl)-1H-pyrazole-4-carboxylic acid], with 58 nM; and `CCc1cc(NC2CCc3cccc(-c4cccc(-n5ncc(C(=O)O)c5N)n4)c32)ccc1C1CCN(C(=O)C2CC2)CC1` (single isomer, unassigned; (-)) [Example 18B, (−)-5-Amino-1-(6-(3-((4-(1-(cyclopropanecarbonyl)piperidin-4-yl)-3-ethylphenyl)amino)-2,3-dihydro-1H-inden-4-yl)pyridin-2-yl)-1H-pyrazole-4-carboxylic acid], with 31 nM. Then `CCc1cc(C[C@H]2CCc3cccc(-c4cccc(-n5ncc(C(=O)O)c5N)c4)c32)ccc1C1CCN(C(=O)C2CC2)CC1` [Example 20, (+)-(R)-5-Amino-1-(3-(3-(4-(1-(cyclopropanecarbonyl)piperidin-4-yl)-3-ethylbenzyl)-2,3-dihydro-1H-inden-4-yl)phenyl)-1H-pyrazole-4-carboxylic acid], with < 0.5 nM; and `CCc1cc(O[C@H]2CCc3cccc(-c4cccc(-n5ncc(C(=O)O)c5OC)c4)c32)ccc1C1CCN(C(=O)[C@H](C)O)CC1` [Example 6, 1-(3-((S)-3-(3-Ethyl-4-(1-((S)-2-hydroxypropanoyl)piperidin-4-yl)phenoxy)-2,3-dihydro-1H-inden-4-yl)phenyl)-5-methoxy-1H-pyrazole-4-carboxylic acid], with < 0.5 nM; and `CCc1cc(NC2CCc3cccc(-c4cccc(-n5ncc(C(=O)O)c5NC)c4)c32)ccc1C1CCN(C(=O)C2CC2)CC1` (single isomer, unassigned; enantiomer-2) [Example 12B, (enantiomer-2)-1-(3-(3-((4-(1-(Cyclopropanecarbonyl)piperidin-4-yl)-3-ethylphenyl)amino)-2,3-dihydro-1H-inden-4-yl)phenyl)-5-(methylamino)-1H-pyrazole-4-carboxylic acid], with < 0.5 nM. Regarding `CCc1nc(NC2CCc3cccc(-c4cccc(-n5ncc(C(=O)O)c5NC)c4)c32)ccc1C1=CCN(C(=O)C2CC2)CC1` (single isomer, unassigned; (-)) [Example 22B, (−)-1-(3-(3-((1′-(Cyclopropanecarbonyl)-2-ethyl-1′,2′,3′,6′-tetrahydro-[3,4′-bipyridin]-6-yl)amino)-2,3-dihydro-1H-inden-4-yl)phenyl)-5-(methylamino)-1H-pyrazole-4-carboxylic acid], the EC50 stood at 40.4 nM. The value for `CCc1nc(NC2CCc3cccc(-c4cccc(-n5ncc(C(=O)O)c5OC)n4)c32)ccc1C1=CCN(C(=O)C2CC2)CC1` (single isomer, unassigned; (-)) [Example 16B, (−)-1-(6-(3-((1′-(Cyclopropanecarbonyl)-2-ethyl-1′,2′,3′,6′-tetrahydro-[3,4′-bipyridin]-6-yl)amino)-2,3-dihydro-1H-inden-4-yl)pyridin-2-yl)-5-methoxy-1H-pyrazole-4-carboxylic acid] was 279 nM.
